Test results from patent US10159640B2, “Prebiotic oral care compositions containing amino acids” (COLGATE-PALMOLIVE COMPANY, priority 2013, dated 2018).

Columns and labels:
Test in all cases: Metabolic activity, Biolog phenotype microarray
Assay type in all cases: cell-based
Settings in all cases: control without dipeptide = 1
[1] = test system: Actinomyces naeslundii
In short: (§1)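 Each species, grown 48 h anaerobically on blood agar, was suspended in IF-0 fluid with tetrazolium Redox Dye D, succinate and ferric citrate, then dispensed onto dipeptide-preloaded plates. Incubated anaerobically at 37° C; OD 492 nm read at 24 and 48 h versus no-dipeptide controls; mean of three biological replicates.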

[2] = test system: Aggregatibacter actinomycetemcomitans
In short: as §1

[3] = test system: Capnocytophaga sputigena
In short: as §1

[4] = test system: Porphyromonas gingivalis
In short: as §1

[5] = test system: Prevotella intermedia
In short: as §1

[6] = test system: Streptococcus gordonii
In short: as §1

[7] = test system: Streptococcus mitis
In short: as §1

[8] = test system: Streptococcus mutans
In short: as §1

[9] = test system: Streptococcus sobrinus
In short: as §1

[10] = test system: Tannerella forsythia
In short: as §1

[11] = test system: Veillonella parvula
In short: as §1

Substance	metabolic activity: OD 492 nm divided by OD of control ([1]; 24 hrs)	metabolic activity: OD 492 nm divided by OD of control ([1]; 48 hrs)	metabolic activity: OD 492 nm divided by OD of control ([2]; 24 hrs)	metabolic activity: OD 492 nm divided by OD of control ([2]; 48 hrs)	metabolic activity: OD 492 nm divided by OD of control ([3]; 24 hrs)	metabolic activity: OD 492 nm divided by OD of control ([3]; 48 hrs)	metabolic activity: OD 492 nm divided by OD of control ([4]; 24 hrs)	metabolic activity: OD 492 nm divided by OD of control ([4]; 48 hrs)	metabolic activity: OD 492 nm divided by OD of control ([5]; 24 hrs)	metabolic activity: OD 492 nm divided by OD of control ([5]; 48 hrs)	metabolic activity: OD 492 nm divided by OD of control ([6]; 24 hrs)	metabolic activity: OD 492 nm divided by OD of control ([6]; 48 hrs)	metabolic activity: OD 492 nm divided by OD of control ([7]; 24 hrs)	metabolic activity: OD 492 nm divided by OD of control ([7]; 48 hrs)	metabolic activity: OD 492 nm divided by OD of control ([8]; 24 hrs)	metabolic activity: OD 492 nm divided by OD of control ([8]; 48 hrs)	metabolic activity: OD 492 nm divided by OD of control ([9]; 24 hrs)	metabolic activity: OD 492 nm divided by OD of control ([9]; 48 hrs)	metabolic activity: OD 492 nm divided by OD of control ([10]; 24 hrs)	metabolic activity: OD 492 nm divided by OD of control ([10]; 48 hrs)	other results
Phe-Glu	0.9642	0.9466	0.9204	0.9345	2.1428	1.7139	0.9806	0.9029	1.0519	0.9562	0.8472	0.9890	1.0644	1.1176	1.0352	0.9816	1.0354	1.0539	1.0452	1.0015	metabolic activity: OD 492 nm divided by OD of control ([11]; 24 hrs): 0.8043; metabolic activity: OD 492 nm divided by OD of control ([11]; 48 hrs): 0.7552
Met-Pro	1.0381	1.0427	0.9162	0.8616	2.5077	1.8376	1.0029	1.0774	0.9704	0.9393	1.0870	1.0447	1.0020	0.9214	0.9563	0.9242	1.0338	1.0538	0.9040	0.9403	metabolic activity: OD 492 nm divided by OD of control ([11]; 24 hrs): 0.7714; metabolic activity: OD 492 nm divided by OD of control ([11]; 48 hrs): 0.6345
